Active and inactive are the calls of the source. The calls are words filed in the database; no cut-off is given here.
Key:
[1] = test system: Vaccinia virus; assay: Antiviral activity against Vaccinia virus; format: functional, organism-based; conditions: Orthopoxvirus vaccinia
[2] = test system: Human respirovirus 3; assay: Antiviral activity against Parainfluenza-3 virus; format: functional, organism-based
[3] = test system: Vesicular stomatitis virus; assay: Antiviral activity against Vesicular stomatitis virus; format: functional, organism-based
[4] = test system: Coxsackievirus B4; assay: Antiviral activity against Coxsackievirus B4; format: functional, organism-based
[5] = test system: Punta Toro virus; assay: Antiviral activity against Punta Toro virus; format: functional, organism-based
[6] = test system: Mammalian orthoreovirus 1; assay: Antiviral activity against Reovirus-1; format: functional, organism-based
[7] = test system: Respiratory syncytial virus; assay: Antiviral activity against Respiratory syncytial virus; format: functional, organism-based
[8] = test system: Sindbis virus; assay: Antiviral activity against Sindbis virus; format: functional, organism-based
[9] = test system: Feline coronavirus; assay: Antiviral activity against Feline coronavirus; format: functional, organism-based
[10] = test system: Human alphaherpesvirus 2; assay: Antiviral activity against Herpes simplex virus type 2; format: functional, organism-based
[11] = test system: Human alphaherpesvirus 1; assay: Antiviral activity against Herpes simplex virus type 1; format: functional, organism-based
[12] = test system: Influenza A virus (A/udorn/1972(H3N2)); format: cell membranes; conditions: 100 uM
[13] = test system: MDCK; assay: Cytotoxicity against MDCK cells after 72 hrs by MTS assay; format: cell-based, Canis lupus familiaris; conditions: dog
[14] = Cytotoxicity against MDCK cells assessed as minimum cytotoxic concentration after 24 hrs by MTS assay; format: cell-based, Canis lupus familiaris; conditions: dog
[15] = Cytotoxicity against MDCK cells assessed as minimum cytotoxic concentration after 72 hrs by MTS assay; format: cell-based, Canis lupus familiaris; conditions: dog
[16] = Inhibition of Influenza A virus M2 ion channel by two-electrode voltage clamp assay

For `CC12CC3CC1(C)CC3(CN)C2`, the Activity [1] was “inactive”, the Activity [2] was “inactive” and the Activity [3] was “inactive”. For the same compound, the Activity [4] was “inactive”, the Activity [5] was “inactive” and the Activity [6] was “inactive”. The Activity [7] was “inactive”, the Activity [8] was “inactive” and the Activity [9] was “inactive”. For the same compound, the Activity [10] was “inactive”, the Activity [11] was “inactive” and the inhibition [12] was 97.3%.

With `CC12CC34CN(C(=N)N)CC3(C1)CC2(C)C4` the Activity [1] was “inactive”, the Activity [2] was “inactive” and the Activity [3] was “inactive”. For the same compound, the Activity [4] was “inactive”, the Activity [5] was “inactive” and the Activity [6] was “inactive”. The Activity [7] was “inactive”, the Activity [8] was “inactive” and the CC50 [13] was 1.4 µM. The Activity [9] was “inactive”, the MCC at 24 h [14] was greater than 50 µM and the MCC at 72 h [15] was 4 µM. For the same compound, the Activity [10] was “inactive”, the Activity [11] was “inactive” and the inhibition [12] was 92.4%.

For `CC12CC34CNCC3(C1)CC2(C)C4`, the Activity [1] was “inactive”, the Activity [2] was “inactive” and the Activity [3] was “inactive”. For the same compound, the Activity [4] was “inactive”, the Activity [5] was “inactive” and the Activity [6] was “inactive”. The Activity [7] was “inactive”, the Activity [8] was “inactive” and the CC50 [13] was 59 µM. The Activity [9] was “inactive”, the MCC at 72 h [15] was 100 µM and the Activity [10] was “inactive”. The Activity [11] was “inactive” and the inhibition [12] was 93.8%.

For `NC1CC[Si]2(CCCCC2)CC1`, the IC50 [16] was 14 µM.

For `C1CCC23CC45CNCC4(CC2(C1)C5)C3`, the Activity [1] was “inactive”, the Activity [2] was “inactive” and the Activity [3] was “inactive”. For the same compound, the Activity [4] was “inactive”, the Activity [5] was “inactive” and the Activity [6] was “inactive”. The Activity [7] was “inactive”, the Activity [8] was “inactive” and the CC50 [13] was 6.8 µM. The Activity [9] was “inactive”, the MCC at 24 h [14] was greater than 50 µM and the MCC at 72 h [15] was 4 µM. The Activity [10] was “inactive”, the Activity [11] was “inactive” and the inhibition [12] was 85.3%.

For `CN1CC23CC4CC2(CC4C3)C1`, the Activity [1] was “inactive”, the Activity [2] was “inactive” and the Activity [3] was “inactive”. The Activity [4] was “inactive”, the Activity [5] was “inactive” and the Activity [6] was “inactive”. The Activity [7] was “inactive”, the Activity [8] was “inactive” and the CC50 [13] was greater than 100 µM. The Activity [9] was “inactive”, the MCC at 72 h [15] was no less than 100 µM and the Activity [10] was “inactive”. For the same compound, the Activity [11] was “inactive” and the inhibition [12] was 88.3%.

In the case of `Oc1ccc(CNC23CC4CC(CC(C4)C2)C3)c(O)c1`, the IC50 [16] is reported as 59 µM.

For `C1NCC23CC4CC12CC4C3`, the Activity [1] was “inactive”, the Activity [2] was “inactive” and the Activity [3] was “inactive”. The Activity [4] was “inactive”, the Activity [5] was “inactive” and the Activity [6] was “inactive”. For the same compound, the Activity [7] was “inactive”, the Activity [8] was “inactive” and the CC50 [13] was no less than 59 µM. The Activity [9] was “inactive”, the MCC at 72 h [15] was 100 µM and the Activity [10] was “inactive”. The Activity [11] was “inactive” and the inhibition [12] was 93.9%.

For `NC(=O)c1ncn([C@@H]2O[C@H](CO)[C@@H](O)[C@H]2O)n1` [RIBAVIRIN], the MCC at 24 h [14] was greater than 100 µM.

With `N=C(N)N1CC23CC4CC2(CC4C3)C1` the Activity [1] was “inactive”, the Activity [2] was “inactive” and the Activity [3] was “inactive”. For the same compound, the Activity [4] was “inactive”, the Activity [5] was “inactive” and the Activity [6] was “inactive”. The Activity [7] was “inactive”, the Activity [8] was “inactive” and the CC50 [13] was 10 µM. For the same compound, the Activity [9] was “inactive”, the MCC at 24 h [14] was greater than 50 µM and the MCC at 72 h [15] was 8.5 µM. The Activity [10] was “inactive”, the Activity [11] was “inactive” and the inhibition [12] was 95.7%.

For `NC12C3CCC4C3C3C(CCC31)C42`, the Activity [1] was “inactive”, the Activity [2] was “inactive” and the Activity [3] was “inactive”. For the same compound, the Activity [4] was “inactive”, the Activity [5] was “inactive” and the Activity [6] was “inactive”. The Activity [7] was “inactive”, the Activity [8] was “inactive” and the Activity [9] was “inactive”. The Activity [10] was “inactive”, the Activity [11] was “inactive” and the inhibition [12] was 4.8%.

For `C1C2C1C1C3C4C5C6CC6C4C14CNCC54C23` (configuration not stated), the Activity [1] was “inactive”, the Activity [2] was “inactive” and the Activity [3] was “inactive”. The Activity [4] was “inactive”, the Activity [5] was “inactive” and the Activity [6] was “inactive”. The Activity [7] was “inactive”, the Activity [8] was “inactive” and the Activity [9] was “inactive”. For the same compound, the Activity [10] was “inactive”, the Activity [11] was “inactive” and the inhibition [12] was 86.5%.

For `C1=CC2C3C4C5C=CC4C24CNCC54C13`, the Activity [1] was “inactive”, the Activity [2] was “inactive” and the Activity [3] was “inactive”. For the same compound, the Activity [4] was “inactive”, the Activity [5] was “inactive” and the Activity [6] was “inactive”. For the same compound, the Activity [7] was “inactive”, the Activity [8] was “inactive” and the Activity [9] was “inactive”. The Activity [10] was “inactive” and the Activity [11] was “inactive”.

Compound `c1csc(-c2cc(CNC34CC5CC(CC(C5)C3)C4)no2)c1` has an IC50 [16] greater than 100 µM.

For `NCC12C3CCC4C3C3C(CCC31)C42`, the Activity [1] was “inactive”, the Activity [2] was “inactive” and the Activity [3] was “inactive”. The Activity [4] was “inactive”, the Activity [5] was “inactive” and the Activity [6] was “inactive”. For the same compound, the Activity [7] was “inactive”, the Activity [8] was “inactive” and the Activity [9] was “inactive”. For the same compound, the Activity [10] was “inactive”, the Activity [11] was “inactive” and the inhibition [12] was 12.8%.

For `N=C(N)N1CC23CC45CCCCC4(C2)CC3(C1)C5`, the Activity [1] was “inactive”, the Activity [2] was “inactive” and the Activity [3] was “inactive”. For the same compound, the Activity [4] was “inactive”, the Activity [5] was “inactive” and the Activity [6] was “inactive”. The Activity [7] was “inactive”, the Activity [8] was “inactive” and the CC50 [13] was 3.1 µM. For the same compound, the Activity [9] was “inactive”, the MCC at 24 h [14] was no less than 10 µM and the MCC at 72 h [15] was 4 µM. The Activity [10] was “inactive”, the Activity [11] was “inactive” and the inhibition [12] was 93.1%.

Work on `NC1CCC2(CC1)C1CC3CC(C1)CC2C3` (configuration not stated) yielded an IC50 [16] of 19 µM.

`CC(N)C12CC3CC(CC(C3)C1)C2` (configuration not stated) [RIMANTADINE] showed a CC50 [13] of 203 µM, an MCC at 24 h [14] of no less than 500 µM and an MCC at 72 h [15] of 500 µM.

With `CN1CC23CC4(C)CC2(C1)CC4(C)C3` the Activity [1] was “inactive”, the Activity [2] was “inactive” and the Activity [3] was “inactive”. The Activity [4] was “inactive”, the Activity [5] was “inactive” and the Activity [6] was “inactive”. For the same compound, the Activity [7] was “inactive”, the Activity [8] was “inactive” and the CC50 [13] was 49 µM. For the same compound, the Activity [9] was “inactive”, the MCC at 72 h [15] was no less than 20 µM and the Activity [10] was “inactive”. For the same compound, the Activity [11] was “inactive” and the inhibition [12] was 87.9%.

With `NC12CC3CC(CC(C3)C1)C2` [AMANTADINE] the CC50 [13] was greater than 500 µM, the MCC at 24 h [14] was no less than 500 µM and the MCC at 72 h [15] was greater than 500 µM. The inhibition [12] was 91%.

With `CC12CC3CC1(C)CC3(N)C2` the Activity [1] was “inactive”, the Activity [2] was “inactive” and the Activity [3] was “inactive”. For the same compound, the Activity [4] was “inactive”, the Activity [5] was “inactive” and the Activity [6] was “inactive”. For the same compound, the Activity [7] was “inactive”, the Activity [8] was “inactive” and the Activity [9] was “inactive”. The Activity [10] was “inactive”, the Activity [11] was “inactive” and the inhibition [12] was 93.6%.

With `CCC12CC34CNCC3(C1)CC2(CC)C4` the Activity [1] was “inactive”, the Activity [2] was “inactive” and the Activity [3] was “inactive”. For the same compound, the Activity [4] was “inactive”, the Activity [5] was “inactive” and the Activity [6] was “inactive”. The Activity [7] was “inactive”, the Activity [8] was “inactive” and the CC50 [13] was 49 µM. For the same compound, the Activity [9] was “inactive”, the MCC at 72 h [15] was 20 µM and the Activity [10] was “inactive”. The Activity [11] was “inactive” and the inhibition [12] was 65%.

With `CCC12CC34CN(C(=N)N)CC3(C1)CC2(CC)C4` the Activity [1] was “inactive”, the Activity [2] was “inactive” and the Activity [3] was “inactive”. For the same compound, the Activity [4] was “inactive”, the Activity [5] was “inactive” and the Activity [6] was “inactive”. The Activity [7] was “inactive”, the Activity [8] was “inactive” and the CC50 [13] was 6.2 µM. For the same compound, the Activity [9] was “inactive”, the MCC at 72 h [15] was 4 µM and the Activity [10] was “inactive”. For the same compound, the Activity [11] was “inactive” and the inhibition [12] was 42.8%.

Reference: ChEMBL document CHEMBL3085678, “3-Azatetracyclo[5.2.1.1(5,8).0(1,5)]undecane derivatives: from wild-type inhibitors of the M2 ion channel of influenza A virus to derivatives with potent activity against the V27A mutant” (J Med Chem, 2013)
